Read-outs that look alike come from different tables or passages of the source.
Assays:
Abeta 40 = assay: In vivo inhibition of beta-secretase: Abeta 40 reduction in CSF and brain of the rat; settings: after 4 hrs; for inhibition in vivo at 10 mg/kg: 10 mpk
Excerpt: In Vivo Inhibition of Beta-Secretase
Several animal models, including mouse, rat, dog, and monkey, may be used to screen for inhibition of beta-secretase activity in vivo following administration of a test compound sample. Animals used in this invention can be wild type, transgenic, or gene knockout animals. For example, the Tg2576 mouse model, prepared and conducted as described in Hsiao et al., 1996, Science 274, 99-102, and other non-transgenic or gene knockout animals are useful to analyze in vivo inhibition of Amyloid beta peptide (Abeta) production in the presence of inhibitory test compounds. Generally, 2 to 18 month old Tg2576 mice, gene knockout mice or non-transgenic animals are administered test compounds formulated in vehicles, such as cyclodextran, phosphate buffers, hydroxypropyl methylcellulose or other suitable vehicles. One to twenty-four hours following the administration of compound, animals are sacrificed, and brains as well as cerebrospinal fluid (CSF) and plasma are removed for analysis of A-beta levels and drug or test compound concentrations (Dovey et al., 2001, Journal of Neurochemistry, 76,173-181) Beginning at time 0, animals are administered by oral gavage, or other means of delivery such as intravenous injection, an inhibitory test compound of up to 100 mg/kg in a standard, conventional formulation, such as 2% hydroxypropyl methylcellulose, 1% Tween80. A separate group of animals receive 2% hydroxypropyl methylcellulose, 1% Tween80 alone, containing no test compound, and serve as a vehicle-control group. At the end of the test period, animals are sacrificed and brain tissues, plasma or cerebrospinal fluid are collected. Brains are either homogenized in 10 volumes (w/v) of 0.2% diethylamine (DEA) in 50 mM NaCl (Best et al., 2005, Journal of Pharmacology and Experimental Therapeutics, 313, 902-908), or in 10 volumes of 0.5% TritonX-100 in Tris-buffered saline (pH at about 7.6). Homogenates are centrifuged at 355,000 g, 4° C. for 30 minutes. CSF or brain supernatants are then analyzed for the presence of A-beta peptide by specific sandwich ELISA assays based on ECL (Electrochemiluminescence) technology. For example, rat Abeta40 is measured using biotinylated-4G8 (Signet) as a capture antibody and Fab40 (an in-house antibody specific to the C-terminal of Abeta40) as a detection antibody. For example, 4 hours after administration of 30 mg/kg oral dose of the test compound in 2% hydroxypropyl methylcellulose, 1% Tween80 (pH2.2) to 200 g male Sprague Dawley rats, amyloid beta peptide levels are measured for reduction by X % and Y % in cerebrospinal fluid and brain, respectively, when compared to the levels measured in the vehicle-treated rats. • Actual vehicles used: Oral: 2% HPMC, 1% Tween80, pH 2.2 • IV: 5% EtOH, 45% Propylene glycol in 5% Dextrose
The compounds of the invention may be shown to reduce the formation and/or deposition of amyloid beta peptide in the cerebrospinal fluid (CSF) as well as in the brain of a mouse or rat at either 3 mpk, 10 mpk or 30 mpk (mpk=mg compound per kg weight of the animal) dosing concentrations after 4 hrs.

Aβ40 = assay: In vitro BACE cell-based assay (Aβ40 sandwich ELISA, cells stably expressing APP); settings: Homo sapiens
How it was run: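 APP-stably-expressing cells, grown 24 h in DMEM/10% FBS, received 10-point compound doses starting at 100 μM or 10 μM (0.1% DMSO final). Secreted Aβ40 in supernatants measured by sandwich ELISA with time-resolved europium fluorescence; IC50 from percent inhibition versus concentration.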

BACE = BACE (Homo sapiens, UniProt P56817); assay: In vitro enzymatic BACE FRET assay; format: biochemical; settings: average IC50, enzyme assay; read-out: BACE 1 FRET assay
How it was run: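 BACE (0.2 nM) preincubated 1 h with serially diluted inhibitors in 0.05 M acetate pH 4.2, 10% DMSO, 100 uM genapol. FRET peptide substrate (50 nM) added, 1 h incubation, then stopped with Tris to neutral pH. Fluorescence from cleavage read at […].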

[1] = Abeta 40, rat CSF, read-out: % reduction of rat CSF levels at 10 pmk
[2] = Abeta 40, rat brain, read-out: % reduction of rat brain levels at 10 mpk
[3] = HEK293, average IC50, cell assay, HEK cells
[4] = HEK293, average IC50, read-out: HEK cell assay

Sequence of BACE (P56817 46-501, species assumed): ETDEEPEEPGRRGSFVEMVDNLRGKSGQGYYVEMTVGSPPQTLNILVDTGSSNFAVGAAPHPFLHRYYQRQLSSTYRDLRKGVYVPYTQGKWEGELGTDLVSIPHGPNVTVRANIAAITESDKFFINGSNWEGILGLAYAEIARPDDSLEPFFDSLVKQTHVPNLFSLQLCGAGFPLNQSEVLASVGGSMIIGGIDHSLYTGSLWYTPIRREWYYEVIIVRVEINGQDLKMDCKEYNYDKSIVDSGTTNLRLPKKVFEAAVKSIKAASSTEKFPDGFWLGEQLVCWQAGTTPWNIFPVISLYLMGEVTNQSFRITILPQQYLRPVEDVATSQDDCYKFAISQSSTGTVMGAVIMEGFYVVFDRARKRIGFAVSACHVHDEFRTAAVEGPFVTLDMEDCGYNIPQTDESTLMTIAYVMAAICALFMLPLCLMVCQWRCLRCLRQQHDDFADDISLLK

| Compound | IC50 (Aβ40; [3]) [nM] | IC50 (BACE) [nM] | IC50 (Aβ40; [4]) [nM] | inhibition in vivo at 10 mg/kg (Abeta 40; [1]) [%] | inhibition in vivo at 10 mg/kg (Abeta 40; [2]) [%] | % reduction of rat CSF levels (Abeta 40; Abeta 40, rat CSF, at 30 mpk) [% at 30 mpk] | % reduction of rat brain levels (Abeta 40; Abeta 40, rat brain, at 30 mpk) [% at 30 mpk] | % reduction of rat CSF levels (Abeta 40; Abeta 40, rat CSF) [% at 3 mpk] | % reduction of rat brain levels (Abeta 40; Abeta 40, rat brain) [% at 3 mpk] |
| --- | --- | --- | --- | --- | --- | --- | --- | --- | --- |
| CC(C)(C#N)COc1cc2c(cn1)Oc1ccc(-c3cccc(F)c3)cc1[C@@]21COCC(N)=N1 [Example 126, (S)-3-(5′-amino-7-(3-fluorophenyl)-2′,6′-dihydrospiro[chromeno[2,3-c]pyridine-5,3′-[1,4]oxazine]-3-yloxy)-2,2-dimethylpropanenitrile] | 1.5 | 0.4 |  | 25 | 8 |  |  |  |  |
| NC1=N[C@@]2(COC1)c1cc(-c3cccnc3F)ccc1Oc1c(F)cc(C3=CCCOC3)cc12 [Example 132, (S)-2′-(5,6-dihydro-2H-pyran-3-yl)-4′-fluoro-7′-(2-fluoropyridin-3-yl)-2,6-dihydrospiro[[1,4]oxazine-3,9′-xanthen]-5-amine] | 1.3 | 0.3 |  | 38 | 25 |  |  |  |  |
| CC(C)(C)C#Cc1cnc2c(c1)[C@]1(COCC(N)=N1)c1cc(-c3cccnc3F)ccc1O2 [Example 89, (S)-3-(3,3-dimethylbut-1-yn-1-yl)-7-(2-fluoropyridin-3-yl)-2′,6′-dihydrospiro[chromeno[2,3-b]pyridine-5,3′-[1,4]oxazin]-5′-amine] | 0.4 | 0.7 |  | 50 | 41 |  |  |  |  |
| NC1=N[C@@]2(CCO1)c1cc(-c3cccnc3F)ccc1Oc1cnc(-c3cncc(F)c3)cc12 [Example 155, (5S)-7-(2-fluoro-3-pyridinyl)-3-(5-fluoro-3-pyridinyl)-5′,6′-dihydrospiro[chromeno[2,3-c]pyridine-5,4′-[1,3]oxazin]-2′-amine] | 6.2 | 3.8 |  | 68 | 53 |  |  |  |  |
| NC1=N[C@@]2(COC1)c1cc(-c3cccnc3)ccc1Oc1c(F)cc(C3=CCCOC3)cc12 [Example 63, (S)-2′-(5,6-dihydro-2H-pyran-3-yl)-4′-fluoro-7′-(pyridin-3-yl)-2,6-dihydrospiro[[1,4]oxazine-3,9′-xanthen]-5-amine] | 0.5 | 0.3 |  | 19 | 16 |  |  |  |  |
| NC1=N[C@@]2(COC1)c1cc(-c3cccnc3F)ccc1Oc1ncc(-c3ccc(F)cc3)cc12 [Example 91, (S)-3-(4-fluorophenyl)-7-(2-fluoropyridin-3-yl)-2′,6′-dihydrospiro[chromeno[2,3-b]pyridine-5,3′-[1,4]oxazin]-5′-amine] | 0.7 | 0.5 |  | 29 | 3 |  |  |  |  |
| CC(C)(C)COc1cnc2c(c1)[C@]1(COCC(N)=N1)c1cc(-c3cccnc3F)ccc1O2 [Example 55, (S)-7-(2-fluoropyridin-3-yl)-3-(neopentyloxy)-2′,6′-dihydrospiro[chromeno[2,3-b]pyridine-5,3′-[1,4]oxazin]-5′-amine] |  | 0.8 | 0.4 | 65 | 51 |  |  |  |  |
| NC1=N[C@@]2(COC1)c1cc(-c3cncc(F)c3)ccc1Oc1cnc(N3CCC(F)(F)C3)cc12 [Example 122, (S)-3-(3,3-difluoropyrrolidin-1-yl)-7-(5-fluoropyridin-3-yl)-2′,6′-dihydrospiro[chromeno[2,3-c]pyridine-5,3′-[1,4]oxazin]-5′-amine] | 0.3 | 0.6 |  |  |  |  |  | 11 | 14 |
| CC(C)(F)COc1cc(F)c2c(c1)[C@]1(COCC(N)=N1)c1cc(-c3cccnc3F)ccc1O2 [Example 37A, (S)-4′-fluoro-2′-(2-fluoro-2-methylpropoxy)-7′-(2-fluoropyridin-3-yl)-2,6-dihydrospiro[[1,4]oxazine-3,9′-xanthen]-5-amine] | 1.3 | 0.2 |  | 44 | 39 |  |  |  |  |
| NC1=N[C@@]2(COC1)c1cc(-c3cccnc3F)ccc1Oc1c(F)cc(N3CCC(F)(F)CC3)cc12 [Example 86, (S)-2′-(4,4-difluoropiperidin-1-yl)-4′-fluoro-7′-(2-fluoropyridin-3-yl)-2,6-dihydrospiro[[1,4]oxazine-3,9′-xanthen]-5-amine] | 2.6 |  |  | 12 | 11 |  |  |  |  |

Second part, led by results:

| IC50 (Aβ40; [3]) [nM] | IC50 (BACE) [nM] | IC50 (Aβ40; [4]) [nM] | Compound | inhibition in vivo at 10 mg/kg (Abeta 40; [1]) [%] | inhibition in vivo at 10 mg/kg (Abeta 40; [2]) [%] | % reduction of rat CSF levels (Abeta 40; Abeta 40, rat CSF, at 30 mpk) [% at 30 mpk] | % reduction of rat brain levels (Abeta 40; Abeta 40, rat brain, at 30 mpk) [% at 30 mpk] | % reduction of rat CSF levels (Abeta 40; Abeta 40, rat CSF) [% at 3 mpk] | % reduction of rat brain levels (Abeta 40; Abeta 40, rat brain) [% at 3 mpk] |
| --- | --- | --- | --- | --- | --- | --- | --- | --- | --- |
|  | 1.4 | 9.7 | NC1=N[C@@]2(CCS1)c1cc(-c3cccnc3F)ccc1Oc1c(F)cc(C3=CCCOC3)cc12 [Example 201, (S)-2′-(5,6-dihydro-2H-pyran-3-yl)-4′-fluoro-7′-(2-fluoropyridin-3-yl)-5,6-dihydrospiro[[1,3]thiazine-4,9′-xanthen]-2-amine] |  |  | 80 | 65 |  |  |
|  | 2.5 | 4.1 | CC(C)(F)COc1cc(F)c2c(c1)[C@]1(CCOC(N)=N1)c1cc(-c3cccnc3F)ccc1O2 [Example 182, (S)-4′-fluoro-2′-(2-fluoro-2-methylpropoxy)-7′-(2-fluoropyridin-3-yl)-5,6-dihydrospiro[[1,3]oxazine-4,9′-xanthen]-2-amine] | 59 | 30 |  |  |  |  |
|  | 1.4 | 1.6 | NC1=N[C@@]2(CCO1)c1cc(-c3cncc(F)c3)ccc1Oc1c2cc(-c2ccnc(F)c2)nc1F [Example 226, (S)-1-fluoro-7-(5-fluoropyridin-3-yl)-3-(2-fluoropyridin-4-yl)-5′,6′-dihydrospiro[chromeno[2,3-c]pyridine-5,4′-[1,3]oxazin]-2′-amine] | 83 | 74 |  |  |  |  |
|  | 3.5 | 6.3 | NC1=N[C@@]2(CCO1)c1cc(-c3cccnc3F)ccc1Oc1c(F)cc(-c3cccnc3)cc12 [Example 168, (S)-4′-fluoro-7′-(2-fluoropyridin-3-yl)-2′-(pyridin-3-yl)-5,6-dihydrospiro[[1,3]oxazine-4,9′-xanthen]-2-amine] | 44 | 18 |  |  |  |  |
| 4.2 | 4.8 |  | NC1=N[C@@]2(CCO1)c1cc(-c3cccnc3)ccc1Oc1c(F)cc(C3=CCOCC3)cc12 [Example 156, (4S)-2′-(3,6-dihydro-2H-pyran-4-yl)-4′-fluoro-7′-(3-pyridinyl)-5,6-dihydrospiro[1,3-oxazine-4,9′-xanthen]-2-amine] | 27 | 8 |  |  |  |  |
|  | 2 | 4.4 | NC1=N[C@@]2(COC1)c1cc(-c3cc(F)ccc3F)ccc1Oc1ncc(-c3ccnc(F)c3)cc12 [Example 220, (S)-7-(2,5-difluorophenyl)-3-(2-fluoropyridin-4-yl)-2′,6′-dihydrospiro[chromeno[2,3-b]pyridine-5,3′-[1,4]oxazin]-5′-amine] | 38 | 2 |  |  |  |  |
|  | 0.6 | 0.7 | Cc1cc(-c2cc3c(c(F)n2)Oc2ccc(-c4cccnc4F)cc2[C@@]32COCC(N)=N2)ccn1 [Example 248, (S)-1-fluoro-7-(2-fluoropyridin-3-yl)-3-(2-methylpyridin-4-yl)-2′,6′-dihydrospiro[chromeno[2,3-c]pyridine-5,3′-[1,4]oxazin]-5′-amine] | 53 | 39 |  |  |  |  |

— US9012446B2, “Amino-oxazines and amino-dihydrothiazine compounds as beta-secretase modulators and methods of use” (Amgen Inc., priority 2010, dated 2015)
